Results published in patent publication US10100058B2, “Fused heterocyclic compounds as CaM kinase inhibitors” (Gilead Sciences, Inc., priority 2016, dated 2018).

Target: recombinant CaMKIIδ (Homo sapiens (Human), UniProt Q13557)
Experiment: CaMKIIδ biochemical assay (HTRF)
Settings: 10 pM CaMKIIδ, 110 nM calmodulin, 12 μM ATP, 1 hour; read-out: CAMKIID-HTRF-384V2 (IC50 - nM)
Protocol: CaMKIIδ Biochemical Assay
The biochemical activity of recombinant CaMKIIδ was measured by monitoring the phosphorylation of a target peptide using Homogenous Time Resolved Fluorescence (HTRF) technology from CisBio Bioassays.

Structure (SMILES) | IC50
CCN(CC)[C@@H](C)CNC(=O)c1cc(-c2cnn3ccc(-c4cccs4)nc23)nc(N2CC(NC(=O)C3CC3)C2)c1 [Example 196, (S)-2-(3-(cyclopropanecarboxamido)azetidin-1-yl)-N-(2-(diethylamino)propyl)-6-(5-(thiophen-2-yl)pyrazolo[1,5-a]pyrimidin-3-yl)isonicotinamide] | 0.22 nM
CCN(CC)[C@@H](C)CNC(=O)c1cc(-c2cnn3ccc(-c4cccs4)nc23)nc(N2CC(NS(C)(=O)=O)C2)c1 [Example 197, (S)—N-(2-(diethylamino)propyl)-2-(3-(methylsulfonamido)azetidin-1-yl)-6-(5-(thiophen-2-yl)pyrazolo[1,5-a]pyrimidin-3-yl)isonicotinamide] | 0.09 nM
CCN(CC)[C@@H](C)CNC(=O)c1cc(-c2cnn3ccc(-c4cccs4)nc23)nc(N2CC(NC(C)=O)C2)c1 [Example 198, (S)-2-(3-acetamidoazetidin-1-yl)-N-(2-(diethylamino)propyl)-6-(5-(thiophen-2-yl)pyrazolo[1,5-a]pyrimidin-3-yl)isonicotinamide] | 0.15 nM
CCN(CC)[C@@H](C)CNC(=O)c1cc(N[C@H](C)CO)nc(-c2cnn3ccc(-c4cccs4)nc23)c1 [Example 199, N—((S)-2-(diethylamino)propyl)-2-(((R)-1-hydroxypropan-2-yl)amino)-6-(5-(thiophen-2-yl)pyrazolo[1,5-a]pyrimidin-3-yl)isonicotinamide] | 0.32 nM
CCN(CC)[C@@H](C)CNC(=O)c1cc(N[C@@H](C)CO)nc(-c2cnn3ccc(-c4cccs4)nc23)c1 [Example 200, N—((S)-2-(diethylamino)propyl)-2-(((S)-1-hydroxypropan-2-yl)amino)-6-(5-(thiophen-2-yl)pyrazolo[1,5-a]pyrimidin-3-yl)isonicotinamide] | 0.16 nM
CCN(CC)[C@@H](C)CNC(=O)c1cc(NC[C@H](C)O)nc(-c2cnn3ccc(-c4cccs4)nc23)c1 [Example 201, N—((S)-2-(diethylamino)propyl)-2-(((S)-2-hydroxypropyl)amino)-6-(5-(thiophen-2-yl)pyrazolo[1,5-a]pyrimidin-3-yl)isonicotinamide] | 0.11 nM
CCN(CC)[C@@H](C)CNC(=O)c1cc(NC[C@@H](C)O)nc(-c2cnn3ccc(-c4cccs4)nc23)c1 [Example 202, N—((S)-2-(diethylamino)propyl)-2-(((R)-2-hydroxypropyl)amino)-6-(5-(thiophen-2-yl)pyrazolo[1,5-a]pyrimidin-3-yl)isonicotinamide] | 0.14 nM
CCN(CC)[C@@H](C)CNC(=O)c1cc(N[C@H]2CCOC2)nc(-c2cnn3ccc(-c4cccs4)nc23)c1 [Example 203, N—((S)-2-(diethylamino)propyl)-2-(((S)-tetrahydrofuran-3-yl)amino)-6-(5-(thiophen-2-yl)pyrazolo[1,5-a]pyrimidin-3-yl)isonicotinamide] | 0.18 nM
CCN(CC)[C@@H](C)CNC(=O)c1cc(-c2cnn3ccc(-c4cccs4)nc23)nc(N2CCN(C(C)=O)CC2)c1 [Example 204, (S)-2-(4-acetylpiperazin-1-yl)-N-(2-(diethylamino)propyl)-6-(5-(thiophen-2-yl)pyrazolo[1,5-a]pyrimidin-3-yl)isonicotinamide] | 0.28 nM
CCN(CC)[C@@H](C)CNC(=O)c1cc(-c2cnn3ccc(-c4cccs4)nc23)nc(N2CC(NC)C2)c1 [Example 205, (S)—N-(2-(diethylamino)propyl)-2-(3-(methylamino)azetidin-1-yl)-6-(5-(thiophen-2-yl)pyrazolo[1,5-a]pyrimidin-3-yl)isonicotinamide] | 0.1 nM
CCN(CC)[C@@H](C)CNC(=O)c1cc(-c2cnn3ccc(-c4cccs4)nc23)nc(N2CC(N(C)C)C2)c1 [Example 206, (S)—N-(2-(diethylamino)propyl)-2-(3-(dimethylamino)azetidin-1-yl)-6-(5-(thiophen-2-yl)pyrazolo[1,5-a]pyrimidin-3-yl)isonicotinamide] | 0.1 nM
CCN(CC)[C@@H](C)CNC(=O)c1cc(-c2cnn3ccc(-c4cccs4)nc23)nc(N2CCNCC2)c1 [Example 207, (S)—N-(2-(diethylamino)propyl)-2-(piperazin-1-yl)-6-(5-(thiophen-2-yl)pyrazolo[1,5-a]pyrimidin-3-yl)isonicotinamide] | 0.21 nM
CCN(CC)[C@@H](C)CNC(=O)c1cc(-c2cnn3ccc(-c4cccs4)nc23)nc(N2CC(C(N)=O)C2)c1 [Example 208, (S)-2-(3-carbamoylazetidin-1-yl)-N-(2-(diethylamino)propyl)-6-(5-(thiophen-2-yl)pyrazolo[1,5-a]pyrimidin-3-yl)isonicotinamide] | 0.07 nM

More lines, now with the values ahead:

IC50 | Structure (SMILES)
0.17 nM | CCN(CC)[C@@H](C)CNC(=O)c1cc(-c2cnn3ccc(-c4cccs4)nc23)nc(N2CC[C@H](OC)C2)c1 [Example 209, N—((S)-2-(diethylamino)propyl)-2-((S)-3-methoxypyrrolidin-1-yl)-6-(5-(thiophen-2-yl)pyrazolo[1,5-a]pyrimidin-3-yl)isonicotinamide]
18.2 nM | CCN(CC)[C@@H](C)CNC(=O)c1cc(-c2cnn3ccc(-c4cccs4)nc23)nc(N2CC(Oc3ccc(F)cc3)C2)c1 [Example 210, (S)—N-(2-(diethylamino)propyl)-2-(3-(4-fluorophenoxy)azetidin-1-yl)-6-(5-(thiophen-2-yl)pyrazolo[1,5-a]pyrimidin-3-yl)isonicotinamide]
0.3 nM | CCN(CC)[C@@H](C)CNC(=O)c1cc(NCc2cc[nH]n2)nc(-c2cnn3ccc(-c4cccs4)nc23)c1 [Example 212, (S)-2-(((1H-pyrazol-3-yl)methyl)amino)-N-(2-(diethylamino)propyl)-6-(5-(thiophen-2-yl)pyrazolo[1,5-a]pyrimidin-3-yl)isonicotinamide]
0.18 nM | CCN(CC)[C@@H](C)CNC(=O)c1cc(NC2CC2)nc(-c2cnn3ccc(-c4cccs4)nc23)c1 [Example 213, (S)-2-(cyclopropylamino)-N-(2-(diethylamino)propyl)-6-(5-(thiophen-2-yl)pyrazolo[1,5-a]pyrimidin-3-yl)isonicotinamide]
0.18 nM | CCN(CC)[C@@H](C)CNC(=O)c1cc(-c2cnn3ccc(-c4cccs4)nc23)nc(N2CC(O)(CC)C2)c1 [Example 214, (S)—N-(2-(diethylamino)propyl)-2-(3-ethyl-3-hydroxyazetidin-1-yl)-6-(5-(thiophen-2-yl)pyrazolo[1,5-a]pyrimidin-3-yl)isonicotinamide]
0.22 nM | CCN(CC)[C@@H](C)CNC(=O)c1cc(-c2cnn3ccc(-c4cccs4)nc23)nc(N2CC(C(C)(C)O)C2)c1 [Example 215, (S)—N-(2-(diethylamino)propyl)-2-(3-(2-hydroxypropan-2-yl)azetidin-1-yl)-6-(5-(thiophen-2-yl)pyrazolo[1,5-a]pyrimidin-3-yl)isonicotinamide]
0.1 nM | CCN(CC)[C@@H](C)CNC(=O)c1cc(-c2cnn3ccc(-c4cccs4)nc23)nc(N2CC(CO)C2)c1 [Example 216, (S)—N-(2-(diethylamino)propyl)-2-(3-(hydroxymethyl)azetidin-1-yl)-6-(5-(thiophen-2-yl)pyrazolo[1,5-a]pyrimidin-3-yl)isonicotinamide]
0.18 nM | CCN(CC)[C@@H](C)CNC(=O)c1cc(-c2cnn3ccc(-c4cccs4)nc23)nc(N2CC(O)(C3CC3)C2)c1 [Example 217, (S)-2-(3-cyclopropyl-3-hydroxyazetidin-1-yl)-N-(2-(diethylamino)propyl)-6-(5-(thiophen-2-yl)pyrazolo[1,5-a]pyrimidin-3-yl)isonicotinamide]
0.17 nM | CCN(CC)[C@@H](C)CNC(=O)c1cc(NCCCOC)nc(-c2cnn3ccc(-c4cccs4)nc23)c1 [Example 218, (S)—N-(2-(diethylamino)propyl)-2-((3-methoxypropyl)amino)-6-(5-(thiophen-2-yl)pyrazolo[1,5-a]pyrimidin-3-yl)isonicotinamide]
0.21 nM | CCN(CC)[C@@H](C)CNC(=O)c1cc(-c2cnn3ccc(-c4cccs4)nc23)nc(N2CC(O)(C(F)(F)F)C2)c1 [Example 219, (S)—N-(2-(diethylamino)propyl)-2-(3-hydroxy-3-(trifluoromethyl)azetidin-1-yl)-6-(5-(thiophen-2 yl)pyrazolo[1,5-a]pyrimidin-3-yl)isonicotinamide]
0.11 nM | CCN(CC)[C@@H](C)CNC(=O)c1cc(NCCCO)nc(-c2cnn3ccc(-c4cccs4)nc23)c1 [Example 220, (S)—N-(2-(diethylamino)propyl)-2-((3-hydroxypropyl)amino)-6-(5-(thiophen-2-yl)pyrazolo[1,5-a]pyrimidin-3-yl)isonicotinamide]
0.13 nM | CCN(CC)[C@@H](C)CNC(=O)c1cc(NCCC(C)(C)O)nc(-c2cnn3ccc(-c4cccs4)nc23)c1 [Example 221, (S)—N-(2-(diethylamino)propyl)-2-((3-hydroxy-3-methylbutyl)amino)-6-(5-(thiophen-2-yl)pyrazolo[1,5-a]pyrimidin-3-yl)isonicotinamide]
0.17 nM | CCN(CC)[C@@H](C)CNC(=O)c1cc(NC2CCOCC2)nc(-c2cnn3ccc(-c4cccs4)nc23)c1 [Example 222, (S)—N-(2-(diethylamino)propyl)-2-((tetrahydro-2H-pyran-4-yl)amino)-6-(5-(thiophen-2-yl)pyrazolo[1,5-a]pyrimidin-3-yl)isonicotinamide]
0.14 nM | CCN(CC)[C@@H](C)CNC(=O)c1cc(NCCN2CCOCC2)nc(-c2cnn3ccc(-c4cccs4)nc23)c1 [Example 223, (S)—N-(2-(diethylamino)propyl)-2-((2-morpholinoethyl)amino)-6-(5-(thiophen-2-yl)pyrazolo[1,5-a]pyrimidin-3-yl)isonicotinamide]
0.21 nM | CCN(CC)[C@@H](C)CNC(=O)c1cc(NCCN2CC(F)(F)C2)nc(-c2cnn3ccc(-c4cccs4)nc23)c1 [Example 224, (S)—N-(2-(diethylamino)propyl)-2-((2-(3,3-difluoroazetidin-1-yl)ethyl)amino)-6-(5-(thiophen-2-yl)pyrazolo[1,5-a]pyrimidin-3-yl)isonicotinamide]
